From US10632081B2, “Intralymphatic delivery of hyaluronan nanoparticle for cancer metastasis” (priority 2015, dated 2020) come the findings set out here.

In one data set the test system is SAS-LN. Nature of the data set: Anti-lymphatic metastasis in spontaneous lymphatic metastasis model of SAS-LN. Format: in vivo, BALB/c nude mice. The conditions noted are these: iv, 3 mg Pt/kg, qw for 5 weeks, cervical lymph nodes by IVIS. The method, then: SAS-LN cells transfected with luciferase were suspended in PBS and were orthotropic implanted (2×10^5 cells per mouse) into the tongue of female BALB/c nude mice (6 to 8 weeks old). SAS-LN tumors were allowed to grow for 1 week. Cisplatin was administered by intravenous injection at dose of 3 mg Pt/kg, and CPHC008 was administered by subcutaneous injection into the buccal site at dose of 3 mg Pt/kg (n=10/group). All test articles were administrated once a week for 5 weeks. After sacrifice, cervical lymph nodes were collected to evaluate metastasis by bioluminescence imagine using IVIS.

Data set [1] in a line: Residual drug in injection site evaluation. The note with it: 1 mg Pt/kg.
Experimental: After 4, 24, 48, and 96 hours post-injection, animals were euthanized by CO2. Each foot was harvested and stored at −80° C. until analysis. Platinum concentration in each foot was analyzed by ICP-MS.
The subject of a further data set is B16-F10-luc2. Nature of the data set: Survival rate and anti-lymphatic metastasis in spontaneous lymphatic metastasis model of B16-F10-luc2. Format: in vivo, C57BL/6 mice. The conditions noted are these: for volume of popliteal lymph node (mean±SEM): 3 mg Pt/kg twice a week for 2 weeks. From the text:
Prior inoculation of the cells, B16-F10-luc2 cells were harvested during the exponential growth period and washed twice with sterile PBS, and then suspended in PBS with 50% Matrigel (BD Biosciences). Respective 3×10^5 B16-F10-luc2 cells were implanted subcutaneously into the right hind foot pad of female C57BL/6 mice (6 to 8 weeks old). B16-F10-luc2 tumors were allowed to grow for 5 weeks, and the tumor cells spontaneously metastasized to regional popliteal lymph node. Lymphatic metastasis was confirmed by bioluminescence imagine using IVIS spectrum. Oxaliplatin was administered by intravenous or subcutaneous injection at the dose of 3 mg Pt/kg, and PtHC604 was administered by subcutaneous injection into the footpad at the same dose of 3 mg Pt/kg. All test articles were administrated twice a week for 2 weeks (n=6-8/group in one independent experiment). Tumor size was measured by calipers and converted into tumor volume using the following formula: V=LS^2/2 (where L is the longest diameter and S is the shortest diameter). Death was defined when mice dead or tumor volumes were >3000 mm^3. At the end of study, mice were sacrificed and the popliteal lymph node was collected for measurement. The volume of lymph node was measured by the same formula above: V=LS^2/2.

A short description of data set [2]: Lymphatic delivery of PtHC604 by different injection routes. It is filed as in vivo, Sprague Dawley (SD) rats. The note with it: iv, 9 mg Pt/kg, right axillary lymph node Pt. As for the experimental part: […] […] […] Right axillary lymph nodes were harvested and stored at −80° C. until analysis. Platinum concentration in lymph nodes was analyzed by ICP-MS (THERMO XSERIES II).

A further data set has as its system B16-F10-luc2 cells. Nature of the data set: In vitro cytotoxicity assay (MTT). Format: cell-based, Murine. The note with it: 48 h treatment. The method, then: B16-F10-luc2 cells were cultured in RPMI1640 medium supplemented with 10% heat-inactivated fetal bovine serum and maintained in a humidified 37° C., 5% CO2 incubator. B16-F10-luc2 cells were seeded on 96-well plate for 2×10^3 cells per well and incubated overnight at 37° C. Cells were treated with phosphate-buffered saline (PBS), oxaliplatin, or PtHC604 for 48 hours at 37° C. Cell viability was determined by MTT assay.

A short description of data set [3]: Lymphatic delivery of PtHC604 by subcutaneous injection in normal rats. Format: in vivo, SD rats. The note with it: sc mammary fat pad, 1 mg Pt/kg. As for the experimental part: To evaluate the lymphatic delivery, SD rats were placed under isoflurane anesthesia and injected subcutaneously into the right mammary fat pad with PtHC604, PtHC16001 or oxaliplatin (1 mg Pt/kg). […] Right axillary lymph nodes, sciatic nerves and plasma were harvested and stored at −80° C. until analysis. Platinum concentrations in lymph nodes and sciatic nerves were analyzed by ICP-MS. Platinum concentration in plasma was analyzed by ICP-OES.

The nature of data set [4]: Local toxicity assessment (Primary Dermal Irritation Index). Format: in vivo, BALB/c mice. The note with it: sc foot pad. As for the experimental part: Mice were weighted and grouped into (1) vehicle; (2) 0.3 mg Pt/kg oxaliplatin; (3) 1 mg Pt/kg oxaliplatin; (4) 3 mg Pt/kg Oxaliplatin; (5) 0.3 mg Pt/kg PtHC604; (6) 1 mg Pt/kg PtHC604; (7) 3 mg Pt/kg PtHC604, n=6/group. Each animal was treated once weekly for 4 weeks. The skin toxicities in the injection site were measured by erythema and oedema grading (Table 1). The skin toxicities potential was evaluated using Primary Dermal Irritation Index (PDII) by combining erythema and oedema grading, and classified into non-irritant, negligible-irritant, mild irritant, moderate irritant, and severe irritant (Table 2).

The mark [5] stands for this setting: 0.3 mg Pt/kg once weekly for 4 weeks.
Setting [6] is: 1 mg Pt/kg once weekly for 4 weeks.
Setting [7] is: 3 mg Pt/kg once weekly for 4 weeks.

Molecules are shown by their SMILES.

Turning to `N.N.[Cl][Pt][Cl]` [Cisplatin], the “Lymphatic metastasis (metastatic ratio)” value in the data set on SAS-LN and with SAS-LN (listed as cisplatin) was 78% in each case.

For orientation: IC50 means the point on the concentration scale where inhibition reaches its midpoint. The low end stands for greater potency in that assay, the high end for weaker potency in that assay. On to `O=C1[O][Pt]2([NH][C@@H]3CCCC[C@H]3[NH]2)[O]C1=O` [Oxaliplatin, oxaliplatin], for which the “residual Pt detected in the foot” value in data set [1] (24 hour after sc footpad injection) is given as 29%. Also, the “Pt exposure in the foot” value in data set [1] (sc footpad injection, up to 96 hours) worked out at 4089 µg·h/mL. Besides, the “volume of popliteal lymph node (mean±SEM)” value in the data set with B16-F10-luc2 (intravenous injection) is listed as 72.7±46.2 mm^3; in the data set with B16-F10-luc2 (subcutaneous injection), 129.2±103.9 mm^3. The molecule also yielded a Median survival days in the data set with B16-F10-luc2 (iv, 3 mg Pt/kg, biw, mice bearing metastatic melanoma) of 7 days. Besides, in data set [2], the “Lymphatic AUC0-96 h” value worked out at 468.7 µg·h/g. The 50% inhibitory concentration (IC50) in the data set on B16-F10-luc2 cells was found to be 650 nM. Besides, the “AUC (96 h) (h * ug/g) Lymph node” value in data set [3] (axillary lymph node Pt) was found to be 66.0 µg·h/g. For the same molecule, the “AUC (96 h) (h * ug/g) Plasma” value in data set [3] (plasma Pt) was 6.7 µg·h/g. For the same molecule, in data set [3] (sciatic nerve Pt), the “AUC (96 h) (h * ug/g) Sciatic nerve” value amounted to 12.0 µg·h/g. The “Classification of dermal irritation” value is listed as “Non-irritation” in data set [4] (setting [5]); “Mild irritation” in data set [4] (setting [6]); “Severe irritation” in data set [4] (setting [7]); “Severe skin toxicities” in data set [4] (3 mg Pt/kg once weekly for 4 weeks, listed as oxaliplatin). In addition, the Dermal irritation index in data set [4] (setting [5]) came out at 0; in data set [4] (setting [6]), 0.5; in data set [4] (setting [7]), 4.8.
